Three molecules from article PMC4457528, “Identification of Novel Small Molecule Inhibitors of Oncogenic RET Kinase” (PLoS ONE, 2015) can be followed below.

Where two headings read alike, the source gives them in different places.

Common to all, as to test: KinomeScan kinase panel, single concentration 10 µM
Format in all cases: binding

Test [1] concerns the target T1, KinomeScan kinase panel (Homo sapiens, UniProt Q04771).
T1 construct: purchased DiscoveRx (KinomeScan)
T1 sequence (Q04771 21-509): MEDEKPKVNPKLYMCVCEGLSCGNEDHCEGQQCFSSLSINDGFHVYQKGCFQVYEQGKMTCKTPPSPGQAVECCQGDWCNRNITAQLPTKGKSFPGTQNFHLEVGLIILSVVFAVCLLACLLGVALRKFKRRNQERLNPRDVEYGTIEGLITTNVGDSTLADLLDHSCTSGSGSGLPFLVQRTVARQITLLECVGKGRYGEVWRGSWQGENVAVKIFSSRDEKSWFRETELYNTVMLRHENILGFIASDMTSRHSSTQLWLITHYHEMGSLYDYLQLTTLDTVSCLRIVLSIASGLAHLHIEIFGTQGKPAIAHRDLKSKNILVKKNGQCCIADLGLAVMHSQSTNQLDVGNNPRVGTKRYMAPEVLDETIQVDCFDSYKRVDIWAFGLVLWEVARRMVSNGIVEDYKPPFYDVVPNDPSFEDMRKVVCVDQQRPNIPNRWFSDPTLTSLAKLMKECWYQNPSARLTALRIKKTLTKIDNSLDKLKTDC
The following applies: ACVR1, 10 µM; read-out: score (%).

Test [2] deals with T2, KinomeScan kinase panel (Homo sapiens, UniProt P07948).
T2 construct: purchased DiscoveRx (KinomeScan)
The following applies: LYN, 10 µM; read-out: score (%).

For test [3], the target named is T3, KinomeScan kinase panel (Homo sapiens, UniProt Q96NX5).
T3 construct: purchased DiscoveRx (KinomeScan)
As to conditions: CAMK1G, 10 µM; read-out: score (%).

Test [4] addresses T4, KinomeScan kinase panel (Homo sapiens, UniProt P36894).
T4 construct: purchased DiscoveRx (KinomeScan)
The following applies: BMPR1A, 10 µM; read-out: score (%).

Test [5] deals with T5, KinomeScan kinase panel (Homo sapiens, UniProt P43403).
T5 construct: purchased DiscoveRx (KinomeScan)
T5 sequence (P43403 1-619): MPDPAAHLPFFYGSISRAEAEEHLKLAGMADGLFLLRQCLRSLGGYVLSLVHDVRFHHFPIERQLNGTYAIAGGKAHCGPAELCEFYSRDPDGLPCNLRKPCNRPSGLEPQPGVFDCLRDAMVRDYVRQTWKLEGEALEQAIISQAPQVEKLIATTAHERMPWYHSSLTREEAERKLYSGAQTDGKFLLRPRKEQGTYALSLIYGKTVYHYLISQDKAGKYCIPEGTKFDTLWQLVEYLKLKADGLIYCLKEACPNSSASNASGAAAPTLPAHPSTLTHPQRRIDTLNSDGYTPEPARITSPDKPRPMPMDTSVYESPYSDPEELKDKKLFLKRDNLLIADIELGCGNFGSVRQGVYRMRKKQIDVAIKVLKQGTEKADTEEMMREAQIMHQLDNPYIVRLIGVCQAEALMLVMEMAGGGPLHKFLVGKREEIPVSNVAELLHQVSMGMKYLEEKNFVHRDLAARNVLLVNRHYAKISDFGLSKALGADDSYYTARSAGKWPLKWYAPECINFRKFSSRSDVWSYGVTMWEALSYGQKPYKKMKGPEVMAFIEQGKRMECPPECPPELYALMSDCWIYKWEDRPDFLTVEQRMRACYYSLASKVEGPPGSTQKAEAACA
As to conditions: kinase ZAP70; 10 µM; read-out: score (%).

For test [6], the target named is T6, KinomeScan kinase panel (Homo sapiens, UniProt P17948).
T6 construct: purchased DiscoveRx (KinomeScan)
The following applies: FLT1, 10 µM; read-out: score (%).

Test [7] has as its target T7, KinomeScan kinase panel (Homo sapiens, UniProt O14920).
T7 construct: purchased DiscoveRx (KinomeScan)
T7 sequence (O14920 1-756): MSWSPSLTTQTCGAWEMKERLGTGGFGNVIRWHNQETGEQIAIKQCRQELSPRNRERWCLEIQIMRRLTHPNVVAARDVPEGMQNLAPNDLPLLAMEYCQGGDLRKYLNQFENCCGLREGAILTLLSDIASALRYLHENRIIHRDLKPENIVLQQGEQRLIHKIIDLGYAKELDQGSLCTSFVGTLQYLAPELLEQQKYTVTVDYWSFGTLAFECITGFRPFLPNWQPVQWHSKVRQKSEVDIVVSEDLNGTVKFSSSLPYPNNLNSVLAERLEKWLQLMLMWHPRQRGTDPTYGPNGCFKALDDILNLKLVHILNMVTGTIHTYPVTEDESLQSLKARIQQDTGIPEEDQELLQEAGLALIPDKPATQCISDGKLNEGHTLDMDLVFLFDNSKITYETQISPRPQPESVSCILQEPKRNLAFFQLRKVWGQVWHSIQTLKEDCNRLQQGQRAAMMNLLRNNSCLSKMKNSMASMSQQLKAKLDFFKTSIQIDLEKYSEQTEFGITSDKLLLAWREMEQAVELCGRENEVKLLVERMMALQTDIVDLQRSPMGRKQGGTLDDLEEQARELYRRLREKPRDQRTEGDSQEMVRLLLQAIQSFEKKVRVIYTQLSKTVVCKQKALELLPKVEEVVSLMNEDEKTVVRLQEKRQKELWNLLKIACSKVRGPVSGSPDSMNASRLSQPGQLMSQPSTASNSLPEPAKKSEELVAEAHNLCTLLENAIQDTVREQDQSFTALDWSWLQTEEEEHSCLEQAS
The following applies: IKK-beta, 10 µM; read-out: score (%).

For test [8], the target named is T8, KinomeScan kinase panel (Homo sapiens, UniProt Q9P286).
T8 construct: purchased DiscoveRx (KinomeScan)
The following applies: read-out: score (%).

For test [9], the target named is T9, KinomeScan kinase panel (Homo sapiens, UniProt O14757).
T9 construct: purchased DiscoveRx (KinomeScan)
T9 sequence (O14757 1-476): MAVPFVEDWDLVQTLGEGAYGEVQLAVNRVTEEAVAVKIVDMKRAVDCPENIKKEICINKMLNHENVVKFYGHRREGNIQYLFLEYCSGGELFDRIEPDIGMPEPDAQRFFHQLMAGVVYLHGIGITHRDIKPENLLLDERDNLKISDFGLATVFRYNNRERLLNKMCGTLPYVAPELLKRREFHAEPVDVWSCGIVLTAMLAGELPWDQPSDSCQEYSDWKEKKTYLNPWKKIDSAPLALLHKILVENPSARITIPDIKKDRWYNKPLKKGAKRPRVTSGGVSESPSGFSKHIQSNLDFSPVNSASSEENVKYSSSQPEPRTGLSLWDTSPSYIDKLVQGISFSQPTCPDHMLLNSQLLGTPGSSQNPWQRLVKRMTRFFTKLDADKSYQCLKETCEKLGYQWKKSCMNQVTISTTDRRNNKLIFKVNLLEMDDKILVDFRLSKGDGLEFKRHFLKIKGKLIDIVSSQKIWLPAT
As to conditions: CHEK1, 10 µM.

The target of test [10] is T10, KinomeScan kinase panel (Homo sapiens, UniProt Q9Y463).
T10 construct: purchased DiscoveRx (KinomeScan)
The following applies: DYRK1B, 10 µM; read-out: score (%).

T2 sequence (P07948 whole entry): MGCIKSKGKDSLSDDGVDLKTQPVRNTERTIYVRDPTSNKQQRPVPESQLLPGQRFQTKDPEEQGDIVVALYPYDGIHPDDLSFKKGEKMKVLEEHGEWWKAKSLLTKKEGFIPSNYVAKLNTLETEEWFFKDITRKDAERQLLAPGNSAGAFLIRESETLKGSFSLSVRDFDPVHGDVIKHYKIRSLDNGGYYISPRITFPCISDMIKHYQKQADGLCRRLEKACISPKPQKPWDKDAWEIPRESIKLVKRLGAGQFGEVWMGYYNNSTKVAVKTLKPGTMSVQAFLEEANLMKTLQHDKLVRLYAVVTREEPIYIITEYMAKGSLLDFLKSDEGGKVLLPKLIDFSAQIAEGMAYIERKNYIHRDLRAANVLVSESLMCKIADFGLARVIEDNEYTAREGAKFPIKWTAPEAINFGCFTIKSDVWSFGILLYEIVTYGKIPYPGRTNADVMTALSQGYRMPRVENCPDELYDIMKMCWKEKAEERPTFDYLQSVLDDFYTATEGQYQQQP
T3 sequence (Q96NX5 whole entry): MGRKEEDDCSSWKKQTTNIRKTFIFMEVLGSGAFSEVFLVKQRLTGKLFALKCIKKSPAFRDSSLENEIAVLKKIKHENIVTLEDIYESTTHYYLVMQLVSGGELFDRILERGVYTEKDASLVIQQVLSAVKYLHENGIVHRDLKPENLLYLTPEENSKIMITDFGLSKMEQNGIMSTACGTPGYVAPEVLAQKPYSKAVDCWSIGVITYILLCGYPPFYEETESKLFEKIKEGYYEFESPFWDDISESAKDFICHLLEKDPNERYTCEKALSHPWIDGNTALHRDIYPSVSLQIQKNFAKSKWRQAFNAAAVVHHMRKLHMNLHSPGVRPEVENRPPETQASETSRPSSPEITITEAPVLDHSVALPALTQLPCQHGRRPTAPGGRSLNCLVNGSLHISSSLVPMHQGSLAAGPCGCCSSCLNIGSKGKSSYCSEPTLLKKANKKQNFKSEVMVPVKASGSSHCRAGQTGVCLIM
T8 sequence (Q9P286 whole entry): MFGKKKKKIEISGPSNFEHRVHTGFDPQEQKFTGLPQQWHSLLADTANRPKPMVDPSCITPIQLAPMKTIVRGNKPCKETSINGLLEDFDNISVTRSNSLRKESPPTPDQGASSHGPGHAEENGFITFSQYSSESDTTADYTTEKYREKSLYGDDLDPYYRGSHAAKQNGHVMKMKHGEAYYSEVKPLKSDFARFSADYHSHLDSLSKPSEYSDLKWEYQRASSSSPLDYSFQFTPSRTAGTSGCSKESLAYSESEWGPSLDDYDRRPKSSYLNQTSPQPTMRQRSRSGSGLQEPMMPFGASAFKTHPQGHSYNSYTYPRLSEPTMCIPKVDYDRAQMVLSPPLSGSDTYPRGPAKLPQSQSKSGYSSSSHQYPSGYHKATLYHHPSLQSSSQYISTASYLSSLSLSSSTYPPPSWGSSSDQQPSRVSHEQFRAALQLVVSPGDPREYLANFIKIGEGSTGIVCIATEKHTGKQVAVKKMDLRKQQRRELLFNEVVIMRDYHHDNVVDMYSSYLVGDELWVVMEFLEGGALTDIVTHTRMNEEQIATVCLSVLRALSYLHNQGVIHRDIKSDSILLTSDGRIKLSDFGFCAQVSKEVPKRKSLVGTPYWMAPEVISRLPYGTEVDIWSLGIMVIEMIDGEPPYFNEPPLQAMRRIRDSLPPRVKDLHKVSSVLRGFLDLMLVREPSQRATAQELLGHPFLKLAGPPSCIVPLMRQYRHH
T4 sequence (P36894 24-532): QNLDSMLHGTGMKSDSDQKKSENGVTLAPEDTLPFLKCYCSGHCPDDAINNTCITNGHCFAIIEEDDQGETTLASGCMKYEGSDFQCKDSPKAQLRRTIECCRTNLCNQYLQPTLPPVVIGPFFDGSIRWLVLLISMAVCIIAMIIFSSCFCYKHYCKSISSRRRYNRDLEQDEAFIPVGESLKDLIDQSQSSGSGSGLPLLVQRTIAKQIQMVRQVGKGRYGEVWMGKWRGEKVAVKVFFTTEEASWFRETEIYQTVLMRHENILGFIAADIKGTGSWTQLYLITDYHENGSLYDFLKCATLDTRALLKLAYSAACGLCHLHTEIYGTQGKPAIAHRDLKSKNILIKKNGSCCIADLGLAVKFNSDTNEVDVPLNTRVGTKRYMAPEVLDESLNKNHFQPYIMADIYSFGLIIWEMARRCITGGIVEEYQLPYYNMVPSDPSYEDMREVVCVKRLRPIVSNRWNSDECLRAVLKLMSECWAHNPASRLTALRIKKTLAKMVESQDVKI
T6 sequence (P17948 27-1338): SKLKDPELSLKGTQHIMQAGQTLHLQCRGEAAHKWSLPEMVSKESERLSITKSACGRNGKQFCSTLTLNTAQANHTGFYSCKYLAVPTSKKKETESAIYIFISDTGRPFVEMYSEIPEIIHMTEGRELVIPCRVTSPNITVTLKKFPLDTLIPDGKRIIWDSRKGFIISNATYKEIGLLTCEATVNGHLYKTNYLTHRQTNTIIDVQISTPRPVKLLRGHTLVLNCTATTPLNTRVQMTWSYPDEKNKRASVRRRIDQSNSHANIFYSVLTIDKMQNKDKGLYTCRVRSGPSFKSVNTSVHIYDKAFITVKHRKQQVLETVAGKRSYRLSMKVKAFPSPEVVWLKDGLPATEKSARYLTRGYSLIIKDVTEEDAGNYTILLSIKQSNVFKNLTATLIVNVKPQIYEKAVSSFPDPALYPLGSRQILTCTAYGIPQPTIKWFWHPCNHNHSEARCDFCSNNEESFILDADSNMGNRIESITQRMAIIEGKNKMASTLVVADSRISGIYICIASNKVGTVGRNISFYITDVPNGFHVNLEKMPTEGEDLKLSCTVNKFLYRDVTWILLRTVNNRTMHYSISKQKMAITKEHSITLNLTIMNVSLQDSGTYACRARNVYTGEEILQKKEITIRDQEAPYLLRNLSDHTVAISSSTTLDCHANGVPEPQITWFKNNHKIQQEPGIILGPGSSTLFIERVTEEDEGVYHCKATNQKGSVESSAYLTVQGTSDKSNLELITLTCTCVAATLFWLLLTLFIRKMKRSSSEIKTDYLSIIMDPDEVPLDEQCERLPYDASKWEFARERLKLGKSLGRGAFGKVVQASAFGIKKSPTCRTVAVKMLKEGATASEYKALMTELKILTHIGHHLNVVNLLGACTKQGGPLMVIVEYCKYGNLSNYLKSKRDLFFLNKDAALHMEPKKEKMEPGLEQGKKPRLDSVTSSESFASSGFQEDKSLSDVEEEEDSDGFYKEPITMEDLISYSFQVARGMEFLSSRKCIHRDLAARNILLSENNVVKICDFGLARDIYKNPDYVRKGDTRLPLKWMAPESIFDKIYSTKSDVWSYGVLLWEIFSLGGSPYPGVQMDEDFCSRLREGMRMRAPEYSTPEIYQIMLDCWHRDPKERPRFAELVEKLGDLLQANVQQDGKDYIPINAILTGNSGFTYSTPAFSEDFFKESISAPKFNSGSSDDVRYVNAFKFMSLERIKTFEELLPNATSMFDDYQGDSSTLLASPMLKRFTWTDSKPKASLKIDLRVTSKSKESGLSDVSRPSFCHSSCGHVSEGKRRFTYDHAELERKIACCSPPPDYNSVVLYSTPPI
T10 sequence (Q9Y463 whole entry): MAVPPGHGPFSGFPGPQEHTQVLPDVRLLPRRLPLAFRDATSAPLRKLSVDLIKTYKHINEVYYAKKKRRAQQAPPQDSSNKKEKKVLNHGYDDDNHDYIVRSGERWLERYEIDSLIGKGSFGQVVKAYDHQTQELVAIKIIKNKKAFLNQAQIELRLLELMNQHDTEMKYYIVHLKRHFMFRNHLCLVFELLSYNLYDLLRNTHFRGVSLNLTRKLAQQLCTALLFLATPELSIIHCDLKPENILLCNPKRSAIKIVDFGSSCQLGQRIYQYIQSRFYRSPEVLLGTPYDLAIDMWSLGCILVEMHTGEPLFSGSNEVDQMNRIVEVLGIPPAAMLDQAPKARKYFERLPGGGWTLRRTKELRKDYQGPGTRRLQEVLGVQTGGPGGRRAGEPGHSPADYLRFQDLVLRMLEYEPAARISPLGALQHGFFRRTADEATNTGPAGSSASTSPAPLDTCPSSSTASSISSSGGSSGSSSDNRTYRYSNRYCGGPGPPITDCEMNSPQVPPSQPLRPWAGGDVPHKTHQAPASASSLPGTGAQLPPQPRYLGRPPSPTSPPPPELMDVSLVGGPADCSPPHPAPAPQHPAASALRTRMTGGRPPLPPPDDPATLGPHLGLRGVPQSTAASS

For the molecule `CCN1CCN(Cc2ccc(NC(=O)c3ccc(C)c(NC(=O)c4cncc(-c5cccs5)c4)c3)cc2C(F)(F)F)CC1` [ALW-II-41-27], the remaining binding at 10 µM on KinomeScan kinase panel [1] was more than 30%; on KinomeScan kinase panel [2], 0.1%; at KinomeScan kinase panel [3], more than 30%; at KinomeScan kinase panel [4], more than 30%; at KinomeScan kinase panel [5], more than 30%; on KinomeScan kinase panel [6], 1%. For the same molecule, the remaining binding at 10 µM at KinomeScan kinase panel [7] is 1.2%; on KinomeScan kinase panel [8] (PAK7, 10 µM), more than 30%; at KinomeScan kinase panel [10], 12%. For the same molecule, the “score (%)” value on KinomeScan kinase panel [9] is “nb (Hits values higher than 30% were considered negative (no binding: nb))”.
`CCN1CCN(Cc2ccc(NC(=O)c3ccc(C)c(/C=C/c4cnc5[nH]ccc5c4Cl)c3)cc2C(F)(F)F)CC1` [HG-6-63-01, (E)-3-(2-(4-chloro-1H-pyrrolo[2,3-b]pyridin-5-yl)vinyl)-N-(4-((4-ethylpiperazin-1-yl)methyl)-3-(trifluoromethyl)phenyl)-4-methylbenzamide]: the remaining binding at 10 µM on KinomeScan kinase panel [1] was more than 30%; on KinomeScan kinase panel [2] it was 0.25%; at KinomeScan kinase panel [3] it was more than 30%; on KinomeScan kinase panel [4] it was more than 30%; on KinomeScan kinase panel [5], more than 30%; at KinomeScan kinase panel [6], 0.2%. Further, the remaining binding at 10 µM on KinomeScan kinase panel [7] is 5.9%; at KinomeScan kinase panel [8] (PAK7/PAK5, 10 µM) it was more than 30%; on KinomeScan kinase panel [10] it was 22%. Also, at KinomeScan kinase panel [9], the “score (%)” value is 25%.
As to `CCN1CCN(Cc2ccc(NC(=O)c3ccc(C)c(C#Cc4cccnc4)c3)cc2C(F)(F)F)CC1` [XMD15-44], the remaining binding at 10 µM at KinomeScan kinase panel [1] is more than 30%; on KinomeScan kinase panel [2], 0.05%; on KinomeScan kinase panel [3], more than 30%; at KinomeScan kinase panel [4], more than 30%; on KinomeScan kinase panel [5], 62%; at KinomeScan kinase panel [6], 0.5%. The remaining binding at 10 µM on KinomeScan kinase panel [7] was 0%; at KinomeScan kinase panel [8] (PAK7, 10 µM), 83%; on KinomeScan kinase panel [10] it was more than 30%. The “score (%)” value at KinomeScan kinase panel [9] was “nb (Hits values higher than 30% were considered negative (no binding: nb))”.
